The values below are quoted from earlier work in patent US6465192B2, “Compounds and methods for the inhibition of protein-protein interactions” (priority 1997, dated 2002).

The conditions of data set [1]: halogen substitutions of the phenyl ring, SN1.

As for `COc1ccc([N+](=O)[O-])c(Br)c1CBr` [R = Br, 2-methoxy-5-nitro-6-bromobenzyl bromide], the Relative reaction rate in data set [1] is listed as 0.006. Regarding `COc1ccc([N+](=O)[O-])c(F)c1CBr` [R = F, 2-methoxy-5-nitro-6-fluorobenzyl bromide], in data set [1], the Relative reaction rate is given as 0.05.

Regarding penicillin, the “forward reaction rate with lysine side chains in proteins” value (physiological conditions) is “about 1×10^−5 /M/sec”. In addition, the “non-specific covalent bonding rate constant to form stable bonds with amino acid side chains” value (side chains such as those of serine and lysine) was “about 8×10^−6 /M/sec”.
